Experimental data as given in patent publication US10125111B2, “Benzofuran compounds for the treatment of hepatitis C” (BRISTOL-MYERS SQUIBB COMPANY, priority 2015, dated 2018).
pEC50: −log10 of the molar value.

tested on: genotype 1b (Con-1) HCV replicon; test: HCV Replicon Luciferase Assay; assay type: cell-based; conditions: Hepatitis C virus, 72 h; Huh-7 genotype 1b replicon, Renilla luciferase, 3 days incubation; read-out: EC50 1b (class)
Protocol: The cell lines used to evaluate compounds consist of a human hepatocyte derived cell line (Huh-7) that constitutively expresses a genotype 1b (Con-1) HCV replicon or a genotype 1b (Con-1) HCV replicon with an asparagine replacing the cysteine at amino acid 316, or a genotype 2a (JFH-1) replicon, containing a Renilla luciferase reporter gene. These cells were maintained in Dulbecco's modified Eagle medium (DMEM) containing 10% FBS, 100 U/mL penicillin/streptomycin and 1.0 mg/mL G418.
To evaluate compound efficacy, titrated compounds were transferred to sterile 384-well tissue culture treated plates, and the plates were seeded with HCV replicon cells (50 μL at a density of 2.4×10^3 cells/well) in DMEM containing 4% FBS (final DMSO concentration at 0.5%). After 3 days incubation at 37° C., cells were analyzed for Renilla Luciferase activity using the EnduRen substrate (Promega cat #E6485) according to the manufacturer's directions. Briefly, the EnduRen substrate was diluted in DMEM and then added to the plates to a final concentration of 7.5 μM. The plates were incubated for at least 1 h at 37° C. then read on a Viewlux Imager (PerkinElmer) using a luminescence program. The 50% effective concentration (EC50) was calculated using the four-parameter logistic Formula noted above.
Compound EC50 data is expressed as A: <100 nM; B=100-1000 nM; C>1000 nM).

**Q.** With `CNC(=O)c1c(-c2ccc(F)cc2)oc2cc(N(CC3CC3)S(C)(=O)=O)c(-c3cccc(C(=O)NC(CF)(CF)CF)c3)cc12` [Compound 2004] as the compound, how does the pEC50 read?
**A.** Its pEC50 is > 7.00.

**Q.** How did the pEC50 turn out when `C#CC(CC)(CC)NC(=O)c1cccc(-c2cc3c(C(=O)NC)c(-c4ccc(F)cc4)oc3cc2N(CCCF)S(C)(=O)=O)c1` [Compound 4028] was run?
**A.** Its pEC50 is > 7.00.

**Q.** How did the pEC50 turn out when `CNC(=O)c1c(-c2ccc(F)cc2)oc2cc(N(CCC(F)(F)F)S(C)(=O)=O)c(-c3cccc(C(=O)NC(CF)(CF)CF)c3)cc12` [Compound 9005] was run?
**A.** Its pEC50 is > 7.00.

**Q.** `CNC(=O)c1c(-c2ccc(F)cc2)oc2cc(N(CCCF)S(C)(=O)=O)c(-c3cccc(C(=O)NC(C)(C)CO)c3)cc12` [Compound 4018] was tested. Which pEC50 did it give?
**A.** The pEC50 was > 7.00.

**Q.** How did the pEC50 turn out when `[2H]C([2H])([2H])C(NC(=O)c1cccc(-c2cc3c(C(=O)NC)c(-c4ccc(F)cc4)oc3cc2N(CC2CC2)S(C)(=O)=O)c1)(C([2H])([2H])[2H])C([2H])([2H])[2H]` [Compound 2006] was run?
**A.** The pEC50 was > 7.00.

**Q.** How did the pEC50 turn out when `CC[C@@H](NC(=O)c1cccc(-c2cc3c(C(=O)NC)c(-c4ccc(F)cc4)oc3cc2N(CCF)S(C)(=O)=O)c1)C1CC1` [Compound 3007] was run?
**A.** Its pEC50 is > 7.00.

**Q.** With `CNC(=O)c1c(-c2ccc(F)cc2)oc2cc(N(CCCF)S(C)(=O)=O)c(-c3cccc(C(=O)NC4(C(F)(F)F)CC4)c3)cc12` [Compound 4023] as the compound, how does the pEC50 read?
**A.** The pEC50 was > 7.00.

**Q.** `CNC(=O)c1c(-c2ccc(F)cc2)oc2cc(N(CC#N)S(C)(=O)=O)c(-c3cccc(C(=O)NC(C)(C)C(F)(F)F)c3)cc12` [Compound 1002] was tested. Which pEC50 did it give?
**A.** The pEC50 was > 7.00.

**Q.** How did the pEC50 turn out when `[2H]C([2H])([2H])C(NC(=O)c1cccc(-c2cc3c(C(=O)NC)c(-c4ccc(F)cc4)oc3cc2N(C(F)F)S(C)(=O)=O)c1)(C([2H])([2H])[2H])C([2H])([2H])[2H]` [Compound 6006] was run?
**A.** The pEC50 was > 7.00.

**Q.** `CNC(=O)c1c(-c2ccc(F)cc2)oc2cc(NCCCF)c(-c3cccc(C(=O)NC(CF)(CF)CF)c3)cc12` [Compound 5006] was tested. Which pEC50 did it give?
**A.** Its pEC50 is > 7.00.

**Q.** With `CNC(=O)c1c(-c2ccc(F)cc2)oc2cc(N(CC#N)S(C)(=O)=O)c(-c3cccc(C(=O)OC)c3)cc12` [Compound 1001] as the compound, how does the pEC50 read?
**A.** The pEC50 was > 7.00.

**Q.** With `CNC(=O)c1c(-c2ccc(F)cc2)oc2cc(N(CCCF)S(C)(=O)=O)c(-c3cccc(C(=O)NCC(C)(C)C)c3)cc12` [Compound 4009] as the compound, how does the pEC50 read?
**A.** The pEC50 was > 7.00.

**Q.** With `CNC(=O)c1c(-c2ccc(F)cc2)oc2cc(N(CCCF)S(C)(=O)=O)c(-c3cccc(C(=O)NC(C)(C)C)c3)cc12` [Compound 4011] as the compound, how does the pEC50 read?
**A.** Its pEC50 is > 7.00.

**Q.** How did the pEC50 turn out when `CNC(=O)c1c(-c2ccc(F)cc2)oc2cc(N(CCCF)S(C)(=O)=O)c(-c3cccc(C(=O)NC(C)(C)C(F)(F)F)c3)cc12` [Compound 4005] was run?
**A.** Its pEC50 is > 7.00.

**Q.** How did the pEC50 turn out when `CNC(=O)c1c(-c2ccc(F)cc2)oc2cc(N(CCF)S(C)(=O)=O)c(-c3cccc(C(=O)N4CC[C@@H](NC(=O)OC(C)(C)C)C4)c3)cc12` [Compound 3038] was run?
**A.** The pEC50 was > 7.00.

**Q.** With `CNC(=O)c1c(-c2ccc(F)cc2)oc2cc(N(CCCF)S(C)(=O)=O)c(-c3cccc(C(=O)NC(C)(C)CCO)c3)cc12` [Compound 4027] as the compound, how does the pEC50 read?
**A.** The pEC50 was > 7.00.

**Q.** `CNC(=O)c1c(-c2ccc(F)cc2)oc2cc(N(CCCF)S(C)(=O)=O)c(-c3cccc(C(=O)NCC(C)C)c3)cc12` [Compound 4015] was tested. Which pEC50 did it give?
**A.** The pEC50 was > 7.00.

**Q.** With `CNC(=O)c1c(-c2ccc(F)cc2)oc2cc(N(CCF)S(C)(=O)=O)c(-c3cccc(C(=O)NC(C)(C)CF)c3)cc12` [Compound 3013] as the compound, how does the pEC50 read?
**A.** The pEC50 was > 7.00.

**Q.** With `CNC(=O)c1c(-c2ccc(F)cc2)oc2cc(N(C(F)F)S(C)(=O)=O)c(-c3cccc(C(=O)NC(CF)(CF)CF)c3)cc12` [Compound 6005] as the compound, how does the pEC50 read?
**A.** Its pEC50 is > 7.00.

**Q.** `CNC(=O)c1c(-c2ccc(F)cc2)oc2cc(N(CCCF)S(C)(=O)=O)c(-c3cccc(C(=O)N[C@@H](C)C(F)(F)F)c3)cc12` [Compound 4021] was tested. Which pEC50 did it give?
**A.** The pEC50 was > 7.00.

**Q.** With `CNC(=O)c1c(-c2ccc(F)cc2)oc2cc(N(CCF)S(C)(=O)=O)c(-c3cccc(C(=O)N4CCCC4c4ccc(Cl)cc4)c3)cc12` (centres unmarked) [Compound 3018] as the compound, how does the pEC50 read?
**A.** The pEC50 was > 7.00.

**Q.** How did the pEC50 turn out when `[2H]C([2H])([2H])C(NC(=O)c1cccc(-c2cc3c(C(=O)NC)c(-c4ccc(F)cc4)oc3cc2N(CCF)S(C)(=O)=O)c1)(C([2H])([2H])[2H])C([2H])([2H])[2H]` [Compound 3006] was run?
**A.** Its pEC50 is > 7.00.

**Q.** With `CNC(=O)c1c(-c2ccc(F)cc2)oc2cc(N(CCCF)S(C)(=O)=O)c(-c3cccc(C(=O)NC(C)(C)CF)c3)cc12` [Compound 4008] as the compound, how does the pEC50 read?
**A.** The pEC50 was > 7.00.

**Q.** How did the pEC50 turn out when `CNC(=O)c1c(-c2ccc(F)cc2)oc2cc(N(CCF)S(C)(=O)=O)c(-c3cccc(C(=O)N4[C@H](C)CC[C@H]4C)c3)cc12` [Compound 3023] was run?
**A.** Its pEC50 is > 7.00.

same assay, conditions: Hepatitis C virus, 72 h; Huh-7 genotype 1b replicon, Renilla luciferase, 3 days incubation; read-out: EC50 (uM) 1b

**Q.** Which EC50 does the source give for `C#CC(CC)(CC)NC(=O)c1cccc(-c2cc3c(C(=O)NC)c(-c4ccc(F)cc4)oc3cc2N(CCCF)S(C)(=O)=O)c1` [Compound 4028] here?
**A.** Its EC50 is 0.0056 µM.

**Q.** For `CC[C@@H](NC(=O)c1cccc(-c2cc3c(C(=O)NC)c(-c4ccc(F)cc4)oc3cc2N(CCF)S(C)(=O)=O)c1)C1CC1` [Compound 3007], which EC50 is on record?
**A.** Its EC50 is 0.0057 µM.

**Q.** How did the EC50 turn out when `CNC(=O)c1c(-c2ccc(F)cc2)oc2cc(NCCCF)c(-c3cccc(C(=O)NC(CF)(CF)CF)c3)cc12` [Compound 5006] was run?
**A.** Its EC50 is 0.0094 µM.

**Q.** `CNC(=O)c1c(-c2ccc(F)cc2)oc2cc(N(CC#N)S(C)(=O)=O)c(-c3cccc(C(=O)OC)c3)cc12` [Compound 1001] was tested. Which EC50 did it give?
**A.** The EC50 was 0.0578 µM.

**Q.** How did the EC50 turn out when `CNC(=O)c1c(-c2ccc(F)cc2)oc2cc(N(CCCF)S(C)(=O)=O)c(-c3cccc(C(=O)NCC(C)C)c3)cc12` [Compound 4015] was run?
**A.** Its EC50 is 0.0075 µM.
